Patent US9566312B2, “Cyclic peptides and use as medicines” (priority 2012, dated 2017)
Starred links: 1 amine or outer side, 2 acyl side, 3 side chain; linkers in the order of their positions; H or OH if unused. Non-standard residues stand in square brackets, D forms with d. Residues, ends and D or L forms follow the SMILES beside them. X26 = C[C@H](CN1CCn2c(nnc2C(F)(F)F)C1)[C@@H](C(=O)[*:2])N(C)[*:1]; X48 = C[C@@H](CN1CCN(S(C)(=O)=O)CC1)[C@@H](C(=O)[*:2])N(C)[*:1]; X28 = CCN1CCN(C(=O)OC[C@H](C)[C@@H](C(=O)[*:2])N(C)[*:1])CC1; X33 = CC(C)N1CCOC(COC[C@@H](C)[C@@H](C(=O)[*:2])N(C)[*:1])C1; X49 = C[C@H](CCC(=O)N1CCN(C)CC1)[C@@H](C(=O)[*:2])N(C)[*:1]; X41 = CC(C)N1CCN(C[C@@H](C)[C@@H](C(=O)[*:2])N(C)[*:1])CC1; X55 = C[C@H](CN(C)CC(=O)N(C)C)[C@@H](C(=O)[*:2])N(C)[*:1]; X50 = C[C@H](CN1CCNC(=O)C1)[C@@H](C(=O)[*:2])N(C)[*:1]; X65 = C[C@H](CCN1CCCCC1)[C@@H](C(=O)[*:2])N(C)[*:1]; MeBmt = C/C=C/C[C@@H](C)[C@@H](O)[C@H](NC)C(=O)O; NMeL = CN[C@@H](CC(C)C)C(=O)O; NMeV = CN[C@H](C(=O)O)C(C)C; dNMeA = CN[C@H](C)C(=O)O; Abu = CC[C@H](N)C(=O)O

Assays:
cyclophilin A (CypA) = cyclophilin A (CypA) (Homo sapiens (Human), UniProt P62937); test: Inhibitor binding to cyclophilin proteins by SPR, CypA; set-up: unit not given here; conditions: 1:1 binding model;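 further: Single-cycle kinetics on a Biacore T200, compound injected at several concentrations for 1 min each at 50 µL/min, then 10 min dissociation, in HEPES pH 7.4 buffer with 3% DMSO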
cyclophilin B (CypB) = cyclophilin B (CypB) (Homo sapiens (Human), UniProt P23284); test: Inhibitor binding to cyclophilin proteins by SPR, CypB; set-up: unit not given here; conditions: 1:1 binding model
How it was run: (§1)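 A 1:1 model fitted to single-cycle kinetic SPR data gave association and dissociation rates and KD. Compound series injected for 1 min each at 50 μL/min, then 10 min dissociation. Running buffer HEPES pH 7.4 with NaCl, P20 and 3% DMSO; target protein was biotinylated avi-tagged cyclophilin on a CAPture surface.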

CypF = CypF (Homo sapiens (Human), UniProt P30405); test: Inhibitor binding to cyclophilin proteins by SPR, CypF; conditions: 1:1 binding model
How it was run: as §1

[1] = system: genotype 1b subgenomic HCV replicon in Huh7.5 cells; assay type: cell-based, hepatitis C virus; conditions: genotype 1b replicon, 72 h incubation; read-out: RPLN-1b IC50
How it was run: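 Huh7.5 cells carrying genotype 1b subgenomic HCV replicon with renilla luciferase-neomycin reporter, in phenol red-free DMEM without G418. Luciferase measured after 72 h compound exposure relative to DMSO-treated cells; cytotoxicity (CC50) by Cell Titer-Glo.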

[2] = system: peripheral blood mononuclear cells (PBMC); test: Anti-proliferative or immunosuppressive activity, BrdU incorporation in PHA-stimulated PBMC; assay type: cell-based; conditions: PHA 3 μg/ml, 60 hour compound treatment; read-out: EMV PBMC IC50
How it was run: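 Fresh PBMCs from two donors, 30,000 per well in X-VIVO 15 medium, stimulated with 3 μg/ml PHA to drive T-cell proliferation. Proliferation measured as BrdU incorporation into DNA by BrdU ELISA.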

[3] = biological target: organic anion transporting polypeptide 1B1 (OATP1B1) (Homo sapiens (Human), UniProt Q9Y6L6); test: OATP assay in CHO-OATP1B1 cells;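 further: inhibition of probe substrate uptake into the cells, ten minutes exposure, accumulated substrate read by fluorescence once cells were lysed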
Chain of organic anion transporting polypeptide 1B1 (OATP1B1) (Q9Y6L6 whole entry): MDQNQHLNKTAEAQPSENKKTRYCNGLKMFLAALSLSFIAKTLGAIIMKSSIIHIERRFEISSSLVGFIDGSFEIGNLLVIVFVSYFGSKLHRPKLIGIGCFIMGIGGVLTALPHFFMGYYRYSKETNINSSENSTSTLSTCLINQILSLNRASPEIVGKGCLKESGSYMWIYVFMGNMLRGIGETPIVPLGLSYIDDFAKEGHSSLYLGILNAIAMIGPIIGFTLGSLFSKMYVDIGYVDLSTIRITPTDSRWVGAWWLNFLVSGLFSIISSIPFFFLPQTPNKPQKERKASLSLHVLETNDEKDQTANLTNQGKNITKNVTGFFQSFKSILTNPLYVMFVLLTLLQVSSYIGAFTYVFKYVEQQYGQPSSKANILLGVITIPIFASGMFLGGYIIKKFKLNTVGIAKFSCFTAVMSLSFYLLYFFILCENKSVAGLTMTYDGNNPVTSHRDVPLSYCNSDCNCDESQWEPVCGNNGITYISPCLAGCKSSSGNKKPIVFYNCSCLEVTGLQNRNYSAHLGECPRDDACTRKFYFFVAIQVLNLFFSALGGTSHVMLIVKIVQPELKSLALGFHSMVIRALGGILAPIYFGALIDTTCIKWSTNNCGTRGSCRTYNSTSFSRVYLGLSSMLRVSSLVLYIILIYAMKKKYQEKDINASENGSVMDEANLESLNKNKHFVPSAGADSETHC

Chain of cyclophilin B (CypB) (P23284 34-216): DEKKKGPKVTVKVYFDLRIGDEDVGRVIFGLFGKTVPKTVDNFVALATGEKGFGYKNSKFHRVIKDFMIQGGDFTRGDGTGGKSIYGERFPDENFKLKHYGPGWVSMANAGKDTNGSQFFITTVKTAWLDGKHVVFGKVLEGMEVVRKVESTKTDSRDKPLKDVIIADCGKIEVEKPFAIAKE
Chain of cyclophilin A (CypA) (P62937 whole entry): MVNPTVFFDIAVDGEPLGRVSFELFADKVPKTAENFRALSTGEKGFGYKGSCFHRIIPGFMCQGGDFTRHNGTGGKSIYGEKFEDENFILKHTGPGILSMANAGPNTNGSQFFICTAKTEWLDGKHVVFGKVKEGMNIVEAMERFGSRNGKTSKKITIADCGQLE
Chain of CypF (P30405 30-207): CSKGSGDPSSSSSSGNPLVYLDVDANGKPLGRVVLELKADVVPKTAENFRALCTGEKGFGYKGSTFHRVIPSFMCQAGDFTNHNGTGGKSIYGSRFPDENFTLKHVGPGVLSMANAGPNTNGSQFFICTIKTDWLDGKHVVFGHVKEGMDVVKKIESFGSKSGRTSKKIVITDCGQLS

SMILES	CypA Kd (cyclophilin A (CypA))	CypB Kd (cyclophilin B (CypB))	CypF Kd (CypF) [nM]	IC50 [1] [nM]	IC50 [2] [nM]	IC50 [3] [nM]
C/C=C/C[C@@H](C)[C@@H](O)[C@H]1C(=O)N[C@@H](CC)C(=O)N(C)[C@H](C)C(=O)N(C)[C@@H]([C@H](C)CCN2CCCCC2)C(=O)N[C@@H](C(C)C)C(=O)N(C)[C@@H](CC(C)C)C(=O)N[C@@H](C)C(=O)N[C@H](C)C(=O)N(C)[C@@H](CC(C)C)C(=O)N(C)[C@@H](CC(C)C)C(=O)N(C)[C@@H](C(C)C)C(=O)N1C [Compound 2.18.8, 3-[D-Ala]-4-[(2S,3R)-3-methyl-2-(methylamino)-5-(piperidin-1-yl)pentanoyl]-cyclosporin] (cyclo(A[dA][NMeL][NMeL][NMeV][MeBmt][Abu][dNMeA][X65]V[NMeL]))	0.9	0.7	0.5	45	1000	2300
C/C=C/C[C@@H](C)[C@@H](O)[C@H]1C(=O)N[C@@H](CC)C(=O)N(C)[C@H](C)C(=O)N(C)[C@@H]([C@H](C)CN2CCNC(=O)C2)C(=O)N[C@@H](C(C)C)C(=O)N(C)[C@@H](CC(C)C)C(=O)N[C@@H](C)C(=O)N[C@H](C)C(=O)N(C)[C@@H](CC(C)C)C(=O)N(C)[C@@H](CC(C)C)C(=O)N(C)[C@@H](C(C)C)C(=O)N1C [Compound 2.5.30, 3-[D-Ala]-4-[(2S,3R)-3-methyl-2-(methylamino)-4-(3-oxopiperazin-1-yl)butanoyl]-cyclosporin] (cyclo(A[dA][NMeL][NMeL][NMeV][MeBmt][Abu][dNMeA][X50]V[NMeL]))	1.7	1.0	1.1	204	34100	2100
C/C=C/C[C@@H](C)[C@@H](O)[C@H]1C(=O)N[C@@H](CC)C(=O)N(C)[C@H](C)C(=O)N(C)[C@@H]([C@H](C)COCC2CN(C(C)C)CCO2)C(=O)N[C@@H](C(C)C)C(=O)N(C)[C@@H](CC(C)C)C(=O)N[C@@H](C)C(=O)N[C@H](C)C(=O)N(C)[C@@H](CC(C)C)C(=O)N(C)[C@@H](CC(C)C)C(=O)N(C)[C@@H](C(C)C)C(=O)N1C (stereo partly drawn) [Compound 2.20.2, 3-[D-Ala]-4-[(2S,3S)-4-(((S)-4-isopropylmorpholin-2-yl)methoxy)-3-methyl-2-(methylamino)butanoyl]-cyclosporin] (cyclo(A[dA][NMeL][NMeL][NMeV][MeBmt][Abu][dNMeA][X33]V[NMeL]))	0.6	0.5	0.3	44	6400	4300
C/C=C/C[C@@H](C)[C@@H](O)[C@H]1C(=O)N[C@@H](CC)C(=O)N(C)[C@H](C)C(=O)N(C)[C@@H]([C@@H](C)CN2CCN(S(C)(=O)=O)CC2)C(=O)N[C@@H](C(C)C)C(=O)N(C)[C@@H](CC(C)C)C(=O)N[C@@H](C)C(=O)N[C@H](C)C(=O)N(C)[C@@H](CC(C)C)C(=O)N(C)[C@@H](CC(C)C)C(=O)N(C)[C@@H](C(C)C)C(=O)N1C [Compound 2.17.9, 3-[D-Ala]-4-[(2S,3S)-3-methyl-2-(methylamino)-4-(4-(methylsulfonyl)piperazin-1-yl)butanoyl]-cyclosporin] (cyclo(A[dA][NMeL][NMeL][NMeV][MeBmt][Abu][dNMeA][X48]V[NMeL]))	0.9	0.6	0.5	23	31900	400
C/C=C/C[C@@H](C)[C@@H](O)[C@H]1C(=O)N[C@@H](CC)C(=O)N(C)[C@H](C)C(=O)N(C)[C@@H]([C@H](C)CN2CCn3c(nnc3C(F)(F)F)C2)C(=O)N[C@@H](C(C)C)C(=O)N(C)[C@@H](CC(C)C)C(=O)N[C@@H](C)C(=O)N[C@H](C)C(=O)N(C)[C@@H](CC(C)C)C(=O)N(C)[C@@H](CC(C)C)C(=O)N(C)[C@@H](C(C)C)C(=O)N1C [Compound 2.5.19, 3-[D-Ala]-4-[(2S,3R)-3-methyl-2-(methylamino)-4-(3-(trifluoromethyl)-5,6-dihydro-[1,2,4]triazolo[4,3-a]pyrazin-7(8H)-yl)butanoyl]-cyclosporin] (cyclo(A[dA][NMeL][NMeL][NMeV][MeBmt][Abu][dNMeA][X26]V[NMeL]))	2.8	1.2	1.6	75	12600	1000
C/C=C/C[C@@H](C)[C@@H](O)[C@H]1C(=O)N[C@@H](CC)C(=O)N(C)[C@H](C)C(=O)N(C)[C@@H]([C@H](C)CCC(=O)N2CCN(C)CC2)C(=O)N[C@@H](C(C)C)C(=O)N(C)[C@@H](CC(C)C)C(=O)N[C@@H](C)C(=O)N[C@H](C)C(=O)N(C)[C@@H](CC(C)C)C(=O)N(C)[C@@H](CC(C)C)C(=O)N(C)[C@@H](C(C)C)C(=O)N1C [Compound 2.14.3, 3-[D-Ala]-4-[(2S,3R)-3-methyl-2-(methylamino)-6-(4-methylpiperazin-1-yl)-6-oxohexanoyl]-cyclosporin] (cyclo(A[dA][NMeL][NMeL][NMeV][MeBmt][Abu][dNMeA][X49]V[NMeL]))	2.0	0.9	0.9	190	14100	5400
C/C=C/C[C@@H](C)[C@@H](O)[C@H]1C(=O)N[C@@H](CC)C(=O)N(C)[C@H](C)C(=O)N(C)[C@@H]([C@H](C)CN2CCN(C(C)C)CC2)C(=O)N[C@@H](C(C)C)C(=O)N(C)[C@@H](CC(C)C)C(=O)N[C@@H](C)C(=O)N[C@H](C)C(=O)N(C)[C@@H](CC(C)C)C(=O)N(C)[C@@H](CC(C)C)C(=O)N(C)[C@@H](C(C)C)C(=O)N1C [Compound 2.5.12, 3-[D-Ala]-4[(2S,3R)-2-Amino-4-(4-isopropyl-piperazin-1-yl)-butanoyl]-cyclosporin] (cyclo(A[dA][NMeL][NMeL][NMeV][MeBmt][Abu][dNMeA][X41]V[NMeL]))	1.0	0.7	0.4	44	3100	2440
C/C=C/C[C@@H](C)[C@@H](O)[C@H]1C(=O)N[C@@H](CC)C(=O)N(C)[C@H](C)C(=O)N(C)[C@@H]([C@@H](C)COC(=O)N2CCN(CC)CC2)C(=O)N[C@@H](C(C)C)C(=O)N(C)[C@@H](CC(C)C)C(=O)N[C@@H](C)C(=O)N[C@H](C)C(=O)N(C)[C@@H](CC(C)C)C(=O)N(C)[C@@H](CC(C)C)C(=O)N(C)[C@@H](C(C)C)C(=O)N1C [Compound 2.17.14, 3-[D-Ala]-4-[(2S,3R)-4-((4-ethylpiperazine-1-carbonyl)oxy)-3-methyl-2-(methylamino)butanoyl]-cyclosporin] (cyclo(A[dA][NMeL][NMeL][NMeV][MeBmt][Abu][dNMeA][X28]V[NMeL]))	0.5	0.4	0.5	57	8100	2200
C/C=C/C[C@@H](C)[C@@H](O)[C@H]1C(=O)N[C@@H](CC)C(=O)N(C)[C@H](C)C(=O)N(C)[C@@H]([C@H](C)CN(C)CC(=O)N(C)C)C(=O)N[C@@H](C(C)C)C(=O)N(C)[C@@H](CC(C)C)C(=O)N[C@@H](C)C(=O)N[C@H](C)C(=O)N(C)[C@@H](CC(C)C)C(=O)N(C)[C@@H](CC(C)C)C(=O)N(C)[C@@H](C(C)C)C(=O)N1C [Compound 2.5.27, 3-[D-Ala]-4-[(2S,3R)-4-((2-(dimethylamino)-2-oxoethyl)(methyl)amino)-3-methyl-2-(methylamino)butanoyl]-cyclosporin] (cyclo(A[dA][NMeL][NMeL][NMeV][MeBmt][Abu][dNMeA][X55]V[NMeL]))	1.4	0.8	0.8	26	14800	2700
C/C=C/C[C@@H](C)[C@@H](O)[C@H]1C(=O)N[C@@H](CC)C(=O)N(C)[C@H](CCCO)C(=O)N(C)[C@@H]([C@H](C)CS(C)(=O)=O)C(=O)N[C@@H](C(C)C)C(=O)N(C)[C@@H](CC(C)C)C(=O)N[C@@H](C)C(=O)N[C@H](C)C(=O)N(C)[C@@H](CC(C)C)C(=O)N(C)[C@@H](CC(C)C)C(=O)N(C)[C@@H](C(C)C)C(=O)N1C (stereo in doubt) [Compound 3.4.1, 3-[(R)-5-hydroxy-2-(methylamino)pentanoyl]-4-[(2S,3S)-3-methyl-2-(methylamino)-4-(methylsulfonyl)butanoyl]-cyclosporin]	7.0	2.8	3.8	4500	5800	2700
